# Laboratory results taken from PubChem BioAssay (NCI).
# Several values for one entry are separate records, joined by “and”; a condition that tells them apart may be missing. Equal entries are not always repeated.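 Five concentrations, 48 hours, 96-well plates. GI50 = concentration required for 50% inhibition of growth. Definition used: TGI = concentration required for complete inhibition of growth.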
# Assays:
# Assay in all cases: DTP human tumour cell line panel, 48 h
# NCI-H522 lung = tested on: NCI-H522 lung
# HL-60(TB) leukemia = tested on: HL-60(TB) leukemia
# SK-MEL-2 melanoma = tested on: SK-MEL-2 melanoma
# SK-OV-3 ovarian = tested on: SK-OV-3 ovarian
# SF-268 CNS = tested on: SF-268 CNS
# SK-MEL-28 melanoma = tested on: SK-MEL-28 melanoma
# NCI-H460 lung = tested on: NCI-H460 lung
# LOX IMVI melanoma = tested on: LOX IMVI melanoma
# A498 renal = tested on: A498 renal
# HCC-2998 colon = tested on: HCC-2998 colon
Structure (SMILES),TGI (NCI-H522 lung),TGI (HL-60(TB) leukemia),TGI (SK-MEL-2 melanoma),TGI (SK-OV-3 ovarian),TGI (SF-268 CNS),TGI (SK-MEL-28 melanoma),TGI (NCI-H460 lung),TGI (LOX IMVI melanoma),TGI (A498 renal),TGI (HCC-2998 colon),GI50 (NCI-H522 lung),GI50 (HL-60(TB) leukemia),GI50 (SK-MEL-2 melanoma),GI50 (SK-OV-3 ovarian),GI50 (SF-268 CNS),GI50 (SK-MEL-28 melanoma),GI50 (NCI-H460 lung),GI50 (LOX IMVI melanoma),GI50 (A498 renal),GI50 (HCC-2998 colon)
Nc1ncnc2c1ncn2C1OC(C(=O)OCCO)C(O)C1O (stereo unspecified),> 100 µM,> 100 µM,> 100 µM,> 100 µM,> 100 µM,> 100 µM,> 100 µM,> 100 µM,> 100 µM,–,–,–,–,–,–,–,–,–,–,–
CCOc1cc[n+](C(=C=[N-])C#N)cc1,> 100 µM,> 100 µM,–,> 100 µM,> 100 µM,–,> 100 µM,> 100 µM,> 100 µM,> 100 µM,–,–,–,–,–,–,–,–,–,–
OCC(O)C(OC1OC(CO)C(O)C(O)C1O)c1nn(-c2ccc(Cl)cc2)c2nc3cc(Cl)ccc3nc12 (stereo unspecified),> 100 µM,–,–,> 100 µM,> 100 µM,> 100 µM,> 100 µM,> 100 µM,> 100 µM,> 100 µM,–,–,–,–,–,–,–,–,–,–
C[C@H](c1ccc(Cl)cc1[N+](=O)[O-])N1C(=O)c2cc(I)ccc2NC(=O)[C@H]1c1ccc(Cl)cc1,> 100 µM,> 100 µM,> 100 µM,> 100 µM,> 100 µM,> 100 µM,> 100 µM,> 100 µM,> 100 µM,–,8.94 µM,> 100 µM,> 100 µM,> 100 µM,> 100 µM,> 100 µM,6.61 µM,> 100 µM,> 100 µM,–
O=C(O)CSc1nnc2c3ccccc3c3ccccc3c2n1,> 100 µM,–,> 100 µM,> 100 µM,> 100 µM,> 100 µM,> 100 µM,> 100 µM,> 100 µM,> 100 µM,–,–,–,–,–,–,–,–,–,–
C(=NCCN=Cc1cccc2ccccc12)c1cccc2ccccc12,> 100 µM,–,> 100 µM,> 100 µM,–,> 100 µM,> 100 µM,–,–,> 100 µM,–,–,–,–,–,–,–,–,–,–
CC1SC(c2cccc(Cl)c2)N(NC(=O)C(O)c2ccccc2)C1=O (stereo unspecified),> 100 µM,–,> 100 µM,> 100 µM,> 100 µM,> 100 µM,> 100 µM,> 100 µM,> 100 µM,> 100 µM,> 100 µM,–,> 100 µM,> 100 µM,> 100 µM,> 100 µM,> 100 µM,> 100 µM,> 100 µM,> 100 µM
CC(=O)Nc1ccc(OCC(O)CO)cc1 (stereo unspecified),> 100 µM,–,> 100 µM,> 100 µM,> 100 µM,> 100 µM,> 100 µM,73.1 µM,> 100 µM,> 100 µM,–,–,–,–,–,–,–,–,–,–
NC(=S)N=Nc1c(O)[nH]c2ccccc12,343 µM,> 1000 µM,> 1000 µM,431 µM,989 µM,> 1000 µM,> 1000 µM,> 1000 µM,94.9 µM and 503 µM,–,159 µM,275 µM,296 µM,209 µM,189 µM,713 µM,185 µM,226 µM,30.1 µM and 206 µM,–
O=C1OC(=O)C2C1C1C(c3ccccc3)=C(c3ccccc3)C2(O)C2C(=O)OC(=O)C12 (stereo unspecified),> 100 µM,–,> 100 µM,> 100 µM,> 100 µM,> 100 µM,> 100 µM,–,> 100 µM,> 100 µM,–,–,–,–,–,–,–,–,–,–
O=C1CC2OCC=C3CN4CCC56c7ccccc7N1C5C2C3CC46 (stereo unspecified) (tested in a mixture with another compound),> 50 µg/mL,0.216 µg/mL,> 50 µg/mL,> 50 µg/mL,> 50 µg/mL,> 50 µg/mL,> 50 µg/mL,> 50 µg/mL,> 50 µg/mL,–,> 50 µg/mL,0.103 µg/mL,> 50 µg/mL,> 50 µg/mL,> 50 µg/mL,> 50 µg/mL,> 50 µg/mL,> 50 µg/mL,> 50 µg/mL,–
CC(C)CC1NC(=O)C(C(C)C)NC(=O)CC(C)COC(=O)C(CC(C)C)N(C)C(=O)C(C(C)C)NC(=O)C(C(C)C)OC1=O (stereo unspecified),> 50 µM,–,> 50 µM,> 50 µM,> 50 µM,> 50 µM,> 50 µM,> 50 µM,> 50 µM,> 50 µM,–,–,–,–,–,–,–,–,–,–
N#CC1C(=O)NC(=O)C(C#N)C1c1ccc(Cl)c(Cl)c1 (stereo unspecified),38 µM,> 100 µM,> 100 µM,> 100 µM,> 100 µM,> 100 µM,> 100 µM,34.4 µM,–,–,–,–,–,–,–,–,–,–,–,–
COn1cc(C(=O)N=C(SC)SC)c2ccccc21,42 µM,–,52 µM,> 100 µM,> 100 µM,> 100 µM,> 100 µM,50.6 µM,–,36.8 µM,13.1 µM,–,17.6 µM,50.6 µM,> 100 µM,80 µM,> 100 µM,17.6 µM,–,19.8 µM
CCCCCCCCCCCCCCCC(N)c1ccccc1 (stereo unspecified),3.21 µM,3.02 µM,3.35 µM,2.92 µM,3.26 µM,3.48 µM,3.55 µM,3 µM,–,3.28 µM,1.62 µM,1.37 µM,1.68 µM,1.58 µM,1.63 µM,1.8 µM,1.91 µM,1.52 µM,–,1.67 µM
O=S1Cc2ccccc2CSS1 (stereo unspecified),19.4 µM,20 µM,–,> 100 µM,74.2 µM,26.8 µM,32.9 µM,17.3 µM,> 100 µM,73.7 µM,–,–,–,–,–,–,–,–,–,–
Nc1nc(N)c(-c2ccc(Cl)cc2)c(/C=C/c2ccc([N+](=O)[O-])cc2)n1,41.9 µM,> 100 µM,67.2 µM,56.4 µM,93.9 µM,> 100 µM,> 100 µM,> 100 µM,16.5 µM,–,13.2 µM,5.64 µM,18.6 µM,19.2 µM,8.32 µM,26.6 µM,3.4 µM,4.52 µM,1.97 µM,–
CC1CCC2[C@@H](C)COC3O[C@]4(C)CCC1C32OO4 (stereo partly specified),> 100 µM,–,> 100 µM,> 100 µM,> 100 µM,> 100 µM,> 100 µM,> 100 µM,> 100 µM,> 100 µM,–,–,–,–,–,–,–,–,–,–
